Reference: EPA's ToxValDB 9.5 (doi:10.2903/j.efsa.2018.5151)
Values after ≈ are worked out from the molar mass of the structure shown.

Key:
Aphidius rhopalosiphi = assay: LR50; higher = less toxic
Apis mellifera = conditions: acute, mortality
Bibionidae = conditions: chronic/long-term; duration: 28 days
Daphnia magna = conditions: chronic/long-term; duration: 21 days
Rattus norvegicus = conditions: acute; oral; mortality
Colinus virginianus = conditions: reproduction developmental
Anas platyrhynchos = conditions: acute; oral; unspecified; mortality
Folsomia candida = conditions: chronic/long-term; duration: 28 days; reproduction

Structure (SMILES): COC(=O)Nc1cccc(OC(=O)Nc2cccc(C)c2)c1 [Phenmedipham]
- LR50 (Aphidius rhopalosiphi; acute, mortality): > 294 g/ha
- LR50 (Aphidius rhopalosiphi; chronic/long-term, duration: 14 days, no effects): > 960 g/ha
- LD50 (Apis mellifera; dermal): > 100 µg/piece
- LD50 (Apis mellifera; oral, unspecified): > 105 µg/piece
- LC50 (Oncorhynchus mykiss; acute, duration: 96 hours, mortality): 1.84 µg/mL (≈ 6.13 µM)
- NOEC (Oncorhynchus mykiss; chronic/long-term, duration: 92 days, growth): 0.041 mg/L
- NOEC (Bibionidae): ≥ 6.86 mg/L
- NOEC (Daphnia magna): 0.005 mg/L
- LD50 (Rattus norvegicus): > 5000 mg/kg-day
- NOAEL (Colinus virginianus): 121 mg/kg-day
- LD50 (Anas platyrhynchos): > 2500 mg/kg-day
- NOEC (Folsomia candida): 500 mg/kg
